Laboratory results as given in patent US20110256557A1, “IDENTIFYING PARATHYROID HORMONE AGONISTS AND ANTAGONISTS” (DISCOVERYBIOMED, INC., priority 2008, published 2011).
One block for each molecule: values may come before it.

How the values were obtained:
[1] = test system: luciferase reporter bearing TCF/LEF binding elements; assay: TCF/LEF luciferase reporter assay in UMR-106 cells; type: cell-based, rat; settings: for effect on PTH-stimulated TCF/LEF luciferase (transcriptional) activity: UMR-106 cells treated with PTH
Description: HEK293, UMR-106 and mouse embryonic fibroblast (MEF) cells were maintained in Dulbecco's Modified Eagle Medium (DMEM) with 10% Fetal Calf Serum (FCS). Mouse Wnt3a conditioned medium (Wnt3a CM) was produced from mouse L cells stably transfected with mouse Wnt3a (American Type Culture Collection; Manassas, Va.) and control conditioned medium (Control CM) was from non-transfected L cells. IgG, LRP6N-IgG, DKK1, Sclerostin, VSVG-LRP6N and Myc-Fz8CRD conditioned media were produced from HEK 293 cells transfected with the individual plasmids. Transfections were carried out using lipofectamine reagent (Invitrogen; Carlsbad, Calif.). Luciferase assays were carried out in either UMR-106 or HEK 293 cells as described previously (Wan et al., Am. J. Pathol. 166:1379-92 (2005)), with 0.3 μg of TCF-Luc reporter plasmid plus 50 ng of Renilla luciferase plasmid (internal control) per well in the 12-well plate. Experiments were repeated at least three times with triplicate for each experiment.

β-catenin = assay: Western blot of cytosolic β-catenin in UMR-106 cells; type: cell-based, rat
Description: (§1) Cells were harvested in cavitation buffer (5 mM HEPES, pH 7.4, 3 mM MgCl2, 1 mM EGTA, 250 mM sucrose) containing protease and phosphatase inhibitors and homogenized by nitrogen cavitation (200 p.s.i., for 5 minutes) in a cell disruption bomb (Parr Instrument Co.; Moline, Ill.). The cell homogenate was centrifuged twice at 700 g for 10 minutes to pellet the nuclei. The supernatant was further centrifuged at 100,000 g (Beckman SW50.1 rotor) for 1 hour to separate the membrane and cytosol fractions, and the resulting membrane pellet was washed three times with cavitation buffer before use in the assays (Zhang et al., Biochem. J. 343:541-9 (1999)). Immunoprecipitation and Western blot analysis of cell lysates were performed as described previously (Wan et al., Am. J. Pathol. 166:1379-92 (2005)).

LRP6 = LRP6 phosphorylation at PPPSP motifs, western blotting with Ab1490, UMR-106 cells; type: cell-based, rat; settings: cells not given
Description: as §1
As phosphorylation of LRP6 at the PPPSP motifs plays a crucial role in activating downstream β-catenin signaling by Wnt, whether PTH induces phosphorylation of LRP6 at PPPSP motifs (Mao et al., Mol. Cell. 7:801-9 (2001); Tamai et al., Mol. Cell. 13:149-56 (2004); Davidson et al., Nature 438:867-72 (2005); Zeng et al., Nature 438:873-7 (2005)). Immunoprecipitated LRP6 from extracts of PTH-treated UMR-106 cells were monitored for their phosphorylation, by western blotting, with an antibody that recognizes phosphorylated PPPSP motifs (Ab1490) (Tamai et al., Mol. Cell. 13:149-56 (2004)). […] Phosphorylation of PPPSP motifs is required for axin recruitment from cytoplasm to LRP6 at cell membrane. […] Fz8CRD, a competitive inhibitor of the Wnt receptor Fz (Hsieh et al., Proc. Natl. Acad. Sci. USA 96:3546-55 (1999)), was used to exclude the possibility that these PTH effects are mediated through promotion of Wnts production or sensitization of Wnt-stimulated signaling. […] In contrast, LRP6N blocked PTH-stimulated LRP6 phosphorylation (FIG. 33).

axin-LRP6 binding = assay: Co-IP of axin binding to LRP6 in HEK293 cells; type: cell-based
Description: as §1

[2] = test system: TCF/LEF luciferase reporter; assay: High-throughput screen validation, TCF/LEF luciferase reporter in osteosarcoma cell line; type: cell-based; settings: 96-well plate
Description: Osteosarcoma cells were plated in a 96 well plate. The cells were transiently transfected with the TCF/LEF luciferase reporter using LipofectAMINE PLUS (Invitrogen; Carlsbad, Calif.). The cells were incubated overnight at 37° C. in OptiMEM-1 serum-free medium with the transfection reagents. The cells were washed and serum-containing medium was added to the cells for 8 hours. The serum-containing medium was replaced with serum-free medium and the cells were stimulated overnight with PTH and WNT3a. Supernatant from the stimulated cells was collected for detection of osteosclerostin, and the cells were subjected to a luciferase assay as previously described (Wan et al., Am. J. Pathol. 166:1379-92 (2005)).
To determine agonists and antagonists of the additive signaling of the PTH receptor and the WNT receptor, (as well as any co-receptors) in bone cells, a high-throughput screen is designed. […] An osteosarcoma cell line is transiently transfected with a TCF/LEF luciferase reporter. The cells are treated with WNT3a and PTH and luciferase activity is determined (FIG. 46).

PTH1R on cell surface = target: T1, PTH1R on cell surface (Homo sapiens, UniProt Q03431); assay: Cell surface binding by immunofluorescence colocalization assay; type: cell-based
T1 construct: HA; expressed in transfected cells; LRP6N-IgG conditioned medium came from transfected HEK 293 cells
T1 sequence (Q03431 27-593): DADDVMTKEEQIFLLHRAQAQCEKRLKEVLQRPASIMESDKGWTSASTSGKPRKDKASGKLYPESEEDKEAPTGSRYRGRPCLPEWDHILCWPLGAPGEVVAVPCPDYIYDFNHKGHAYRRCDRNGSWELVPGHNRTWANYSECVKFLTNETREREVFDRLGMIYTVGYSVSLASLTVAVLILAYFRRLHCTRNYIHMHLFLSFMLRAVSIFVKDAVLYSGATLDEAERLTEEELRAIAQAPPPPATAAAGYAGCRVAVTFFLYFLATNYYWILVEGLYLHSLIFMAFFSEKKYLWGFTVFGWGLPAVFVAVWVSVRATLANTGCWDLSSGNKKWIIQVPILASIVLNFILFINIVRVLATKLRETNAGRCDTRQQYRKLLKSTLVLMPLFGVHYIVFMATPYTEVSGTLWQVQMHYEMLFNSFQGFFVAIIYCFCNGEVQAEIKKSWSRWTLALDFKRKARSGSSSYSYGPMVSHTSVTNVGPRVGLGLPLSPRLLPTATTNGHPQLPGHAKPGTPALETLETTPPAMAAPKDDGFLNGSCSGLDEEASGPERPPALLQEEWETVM
Description: Cells were transfected with HA-PTH1R and treated with IgG conditioned medium or LRP6N-IgG conditioned medium for 1 hour followed by PTH (1-84) treatment for 15 minutes. Cells were then washed with phosphate buffered saline (PBS), fixed with 4% paraformaldehyde, permeabilized with 0.1% Triton X-100, and incubated with primary antibody followed by incubation with chromophore-conjugated secondary antibody. Digital pictures were taken using an Olympus, IX TRINOC camera fitted to an Olympus, IX70 Inverted Research Microscope (Olympus; Center Valley, Pa.) with objective lenses of Hoffman Modulation Contrast®, HMC 10 LWD PL FL, 0.3NA ∝/1, at room temperature, and processed using MagnaFire® SP imaging software. A […] TCs SP2 system was used for confocal imaging. The ratios of the number of cells showing in green to the number of cells showing in red were calculated. For each treatment, 100 cells on each of three different slides were analyzed.

LRP6-PTH1R complex = target: T2, LRP6-PTH1R complex (Rattus norvegicus, UniProt P25961); assay: Co-immunoprecipitation of endogenous LRP6 and PTH1R in UMR-106 cells; type: cell-based
T2 construct: endogenous LRP6 and endogenous PTH1R in UMR-106 cells; endogenous in cells; host or cells: UMR-106
T2 sequence (P25961 27-591): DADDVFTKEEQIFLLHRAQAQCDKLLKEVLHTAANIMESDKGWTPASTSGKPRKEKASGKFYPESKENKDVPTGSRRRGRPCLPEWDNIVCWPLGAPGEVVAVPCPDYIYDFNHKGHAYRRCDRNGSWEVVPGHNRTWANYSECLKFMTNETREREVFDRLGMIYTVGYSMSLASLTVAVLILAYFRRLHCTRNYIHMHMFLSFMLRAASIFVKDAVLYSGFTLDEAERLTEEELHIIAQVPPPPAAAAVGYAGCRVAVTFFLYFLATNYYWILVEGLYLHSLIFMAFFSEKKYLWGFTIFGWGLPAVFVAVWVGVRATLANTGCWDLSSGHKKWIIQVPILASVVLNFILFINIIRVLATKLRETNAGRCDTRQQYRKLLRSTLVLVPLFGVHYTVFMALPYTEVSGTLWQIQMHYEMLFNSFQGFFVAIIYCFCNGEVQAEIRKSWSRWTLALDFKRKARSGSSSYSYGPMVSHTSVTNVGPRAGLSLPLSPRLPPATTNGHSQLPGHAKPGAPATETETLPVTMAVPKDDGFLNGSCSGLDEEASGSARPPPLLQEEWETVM
Description: as §1

Molecule: O=S(=O)(NCCNC/C=C/c1ccc(Br)cc1)c1cccc2cnccc12 [H89]
effect on Wnt3a-stimulated β-catenin-dependent transcription activity (TCF4/LEF luciferase) ([1]; UMR-106 cells): did not affect
effect on PTH-stimulated TCF/LEF luciferase (transcriptional) activity [1]: reduced
effect on PTH-induced β-catenin stabilization (β-catenin): reduced
effect on Wnt3a-stimulated β-catenin stabilization (β-catenin): did not affect
effect on Wnt3a-stimulated LRP6 phosphorylation (LRP6): did not affect
effect on binding of axin to LRP6 in cells treated with PTH (axin-LRP6 binding; PTH-treated cells): reduced

Molecule: PTH (39-84): C-terminal fragment of PTH; binds PTH1R but does not activate PKA (APLAPRDAGSQRPRKKEDNVLVESHEKSLGEADKADVNVLTKAKSQ; Parathyroid hormone; UniProt P01270 70-115, looked up, fragment)
activating β-catenin signaling (TCF4/LEF luciferase) compared with PTH (1-84) ([1]; UMR-106 cells): much less effective than PTH (1-84)
altering the stability of β-catenin compared with PTH (1-84) (β-catenin): much less effective than PTH (1-84)
inducing axin-LRP6 binding compared with PTH (1-84) (axin-LRP6 binding): much less effective than PTH (1-84)

Molecule: WNT3a
stimulation of the TCF/LEF luciferase reporter, treatment alone [2]: stimulates

immuno-colocalization with PTH1R on cell surface (PTH1R on cell surface; with addition of PTH ligand (PTH (1-84), 15 minutes)): 82.3%
immuno-colocalization with PTH1R on cell surface (PTH1R on cell surface; without PTH ligand, cells transfected with HA-PTH1R): 22.8%
B1: LRP6N-IgG: LRP6 extracellular domain fused with IgG (protein)
chain: APLLLYANRRDLRLVDATNGKENATIVVGGLEDAAAVDFVFSHGLIYWSDVSEEAIKRTEFNKTESVQNVVVSGLLSPDGLACDWLGEKLYWTDSETNRIEVSNLDGSLRKVLFWQELDQPRAIALDPSSGFMYWTDWGEVPKIERAGMDGSSRFIIINSEIYWPNGLTLDYEEQKLYWADAKLNFIHKSNLDGTNRQAVVKGSLPHPFALTLFEDILYWTDWSTHSILACNKYTGEGLREIHSDIFSPMDIHAFSQQRQPNATNPCGIDNGGCSHLCLMSPVKPFYQCACPTGVKLLENGKTCKDGATELLLLARRTDLRRISLDTPDFTDIVLQLEDIRHAIAIDYDPVEGYIYWTDDEVRAIRRSFIDGSGSQFVVTAQIAHPDGIAVDWVARNLYWTDTGTDRIEVTRLNGTMRKILISEDLEEPRAIVLDPMVGYMYWTDWGEIPKIERAALDGSDRVVLVNTSLGWPNGLALDYDEGKIYWGDAKTDKIEVMNTDGTGRRVLVEDKIPHIFGFTLLGDYVYWTDWQRRSIERVHKRSAEREVIIDQLPDLMGLKATNVHRVIGSNPCAEENGGCSHLCLYRPQGLRCACPIGFELISDMKTCIVPEAFLLFSRRADIRRISLETNNNNVAIPLTGVKEASALDFDVTDNRIYWTDISLKTISRAFMNGSALEHVVEFGLDYPEGMAVDWLGKNLYWADTGTNRIEVSKLDGQHRQVLVWKDLDSPRALALDPAEGFMYWTEWGGKPKIDRAAMDGSERTTLVPNVGRANGLTIDYAKRRLYWTDLDTNLIESSNMLGLNREVIADDLPHPFGLTQYQDYIYWTDWSRRSIERANKTSGQNRTIIQGHLDYVMDILVFHSSRQSGWNECASSNGHCSHLCLAVPVGGFVCGCPAHYSLNADNRTCSAPTTFLLFSQKSAINRMVIDEQQSPDIILPIHSLRNVRAIDYDPLDKQLYWIDSRQNMIRKAQEDGSQGFTVVVSSVPSQNLEIQPYDLSIDIYSRYIYWTCEATNVINVTRLDGRSVGVVLKGEQDRPRAVVVNPEKGYMYFTNLQERSPKIERAALDGTEREVLFFSGLSKPIALALDSRLGKLFWADSDLRRIESSDLSGANRIVLEDSNILQPVGLTVFENWLYWIDKQQQMIEKIDMTGREGRTKVQARIAQLSDIHAVKELNLQEYRQHPCAQDNGGCSHICLVKGDGTTRCSCPMHLVLLQDELSCGEPPTCSPQQFTCFTGEIDCIPVAWRCDGFTECEDHSDELNCPVCSESQFQCASGQCIDGALRCNGDANCQDKSDEKNCEVLCLIDQFRCANGQCIGKHKKCDHNVDCSDKSDELDCYPTEEPAPQA
modifications: left off: a dimerising Fc or GST

effect on PTH-induced association of endogenous LRP6 with PTH1R (LRP6-PTH1R complex): blocked
B2: LRP6N: soluble N-terminal (extracellular) domain of LRP6; acts as a dominant-negative in PTH signaling (protein)
chain: B1 chain
modifications: left off: a dimerising Fc or GST
notes: soluble N-terminal (extracellular) domain of LRP6; acts as a dominant-negative in PTH signaling
effect on PTH-stimulated TCF/LEF luciferase (transcriptional) activity [1]: inhibited
effect on PTH-stimulated LRP6 phosphorylation (LRP6; endogenous LRP6): blocked
